Source: US20190226949A1, “IRIDIUM COMPLEXES FOR CELLULAR IMAGING” (UNIVERSITY OF SOUTH AUSTRALIA, priority 2016, published 2019)
Several values for one entry are separate records, joined by “and”; a condition that tells them apart may be missing. Equal values may be shown once.

How the values were obtained:
[1] = Lipophilicity by shake-flask method (7.4-buffered PBS / n-octanol); type: physicochemical; conditions: pH 7.4; 7.4-buffered PBS solution and n-octanol; read-out: logD7.4, distribution coefficient
Procedure: The lipophilicity of the iridium complexes was measured by the shake-flask method using 7.4-buffered PBS and n-octanol as solvents (Table 2). The values range between 1.49 and 2.68 are typical for cyclometalated iridium complexes that have not been bioconjugated. […] In general, neutral complexes have log D7.4 values above 2.00 and there is an increased in lipophilicity of extending the tetrazolato ligand with the addition of a phenyl spacer in [Ir(ppy)2(TzPyPhCN)], or by extending the conjugation on passing from pyridine to quinoline or isoquinoline for [Ir(ppy)2(TzQn)] and [Ir(ppy)2(TziQn)]. Methylation in all cases reduces lipophilicity to log D7.4 values […], with the same trend within the family of methylated complexes as previously observed for the neutral ones.

[2] = Photophysical measurements (absorption, emission, lifetime, quantum yield) in diluted solutions; type: physicochemical; conditions: for Emission λem / τaer, excited state lifetime (relative weight in parentheses) / τdeaer, excited state lifetime (relative weight in parentheses): 298K; for Φaer, quantum yield / Φdeaer, quantum yield: versus Ru(bpy)3^2+ in water (φr = 0.028); for τdeaer, excited state lifetime (relative weight in parentheses) / Φdeaer, quantum yield: deaerated; for knr: calculated as [(1 − φ)/τ] from deaerated solutions; for kr: calculated as [φ/τ] from deaerated solutions; for Φ, quantum yield: versus Ru(bpy)3^2+ in water
Source text: A summary of the photophysical data for the complexes as diluted solutions (10^−5 M) in dichloromethane, water, PBS, lysosomal fluid solution, and ethyl laurate is reported in Table 1. All the listed aqueous media also contain 0.1% DMSO to favour the solubilisation of the complexes. The various solvents have been chosen to identify potential modulations on the photophysical behaviour of the iridium complexes in diverse cellular environments such as cytoplasm, endosome/lysosomes acidic organelles, or lipid-rich compartments like membranes, endoplasmic reticulum, and lipid droplets. In general, the photophysical characteristics were measured in aerated solutions to take into account the presence of oxygen in live cells. On the other hand, dichloromethane solutions were compared as aerated and degassed to confirm oxygen sensitivity and triplet character of the excited states of the complexes.
Absorption spectra were recorded at room temperature using a Cary 4000 UV/Vis spectrometer. Uncorrected steady state emission and excitation spectra were recorded on an Edinburgh FLSP980-S2S2-stm spectrometer equipped with: i) a temperature-monitored cuvette holder; ii) 450 W Xenon arc lamp; iii) double excitation and emission monochromators; iv) a Peltier cooled Hamamatsu R928P photomultiplier tube (spectral range 200-870 nm). Emission and excitation spectra were corrected for source intensity (lamp and grating) and emission spectral response (detector and grating) by a calibration curve supplied with the instrument. According to the approach described by Demas and Crosby, luminescence quantum yields (Φem) were measured in optically dilute solutions (O.D.<0.1 at excitation wavelength) obtained from absorption spectra on a wavelength scale [nm] and compared to the reference emitter by the following equation: […]
where A is the absorbance at the excitation wavelength (λ), I is the intensity of the excitation light at the excitation wavelength (λ), n is the refractive index of the solvent, D is the integrated intensity of the luminescence and Φ is the quantum yield. The subscripts r and x refer to the reference and the sample, respectively. The quantum yield determinations were performed at identical excitation wavelength for the sample and the reference, therefore cancelling the I(λr)/I(λx) term in the equation. The quantum yields of complexes were measured against Rubipy in water (Φr=0.028). Emission lifetimes (z) were determined with the time correlated single photon counting technique (TCSPC) with the same Edinburgh FLSP980-S2S2-stm spectrometer using either a pulsed picosecond LED (EPLED/EPL 377 nm, FHWM<800 ps) or a microsecond flashlamp. The goodness of fit was assessed by minimising the reduced χ^2 function and by visual inspection of the weighted residuals. The solvents used for the preparation of the solutions for the photophysical investigations were of LR grade and the water was deionised. Degassing of the dichlorometane solutions was performed using the freeze-pump-thaw method. Experimental uncertainties are estimated to be ±8% for lifetime determinations, ±20% for quantum yields, ±2 nm and ±5 nm for absorption and emission peaks, respectively.

[3] = system: H9c2 rat cardiomyoblast cells; experiment: Staining and co-staining of live H9c2 cells, confocal and two-photon microscopy; type: cell-based; conditions: for cellular localisation (co-staining): live H9c2, 20 μM, 30 minutes; for emission profile from cells: live H9c2, one-photon or two-photon excitation
Procedure: Live H9c2 rat cardiomyoblasts were incubated with the iridium complexes for 30 minutes. Complexes were made to a final concentration of 20 μM in the cell culture medium with DMSO concentration <0.2%. Under these conditions, the luminescence from the iridium complexes within the cells was detected via confocal microscopy under single-photon excitation (403 nm) or two-photon excitation (810-840 nm).
To determine the localisation of the iridium complexes, co-staining experiments were carried out with the use of ER-Tracker™ Red (endoplasmic reticulum), LysoTracker® Red DND-99 (acidic compartments), MitoTracker® Red (mitochondria), BODIPY® 500/510 C1, C12(fatty acid) or β-BODIPY® FL HPC (phospholipids). […] This difference was also in agreement with the trend of the quantum yield data illustrated before and detection of internalised complex by ICP-MS.
H9c2 rat cardiomyoblast cell line was a kind gift from Professor Janna Morrison (University of South Australia). The H9c2 cells were maintained in high-glucose (4500 mg/L) DMEM medium (Sigma-Aldrich, USA) containing 10% fetal bovine serum (FBS; In Vitro Technologies, USA) and 2 mM L-glutamine (Sigma-Aldrich, USA) at 37° C. and 5% CO2. The H9c2 cells were cultured in […] flasks, and cells (1×10^6 cells/mL) that had been passaged, from two up to five times were used for experiments. For live cell imaging and MTS assay, the H9c2 cells (1×10^5 cells/mL) were cultured overnight in either ibidi μ-Slide 8 wells in a final volume of 250 μL or 96-well microtiter plate in a final volume of 200 μL in absence of Ir-based molecular probes.
The H9c2 cells were incubated with 20 μM of Ir-based molecular probes for 30 minutes in FBS-free media (300 μL) at 37° C. and 5% CO2. These cells were washed twice with phosphate buffered saline (PBS) and once with FBS-free media, and then co-stained with either ER-Tracker™ Red (BODIPY® TR Glibenclamide), LysoTracker® Red DND-99, MitoTracker® Red CMXRos (1H,5H,11H,15H-Xantheno[2,3,4-ij:5,6,7-i′j′]diquinolizin-18-ium, 9-[4-(chloromethyl)phenyl]-2,3,6,7,12,13,16,17-octahydro-, chloride), β-BODIPY® FL C5-HPC (2-(4,4-Difluoro-5,7-Dimethyl-4-Bora-3a,4a-Diaza-s-Indacene-3-Pentanoyl)-1-Hexadecanoyl-sn-Glycero-3-Phosphocholine) or BODIPY® 500/510 C1, C12 (4,4-Difluoro-5-Methyl-4-Bora-3a,4a-Diaza-s-Indacene-3-Dodecanoic Acid), which were obtained from Life Technologies Australia Pty Ltd, Australia. Cell biology analysis was carried out with a minimum of two experimental groups. Imaging analysis was performed using a Nikon A1+ confocal microscope equipped with 403 nm, 488 nm, 561 nm and 640 nm solid-state lasers (Nikon, Japan) and OKOLab Microscope Incubator (Okolab USA Inc., USA). The final preparation of the images was conducted with Adobe Photoshop CC (Adobe Systems Inc., USA).
The H9c2 cells were incubated with 20 μM of Ir-based molecular probes for 30 minutes in FBS-free media (300 μL) at 37° C. and 5% CO2. These cells then were washed with phosphate buffered saline (PBS) and imaged using Zeiss LSM710 META NLO inverted microscope supplemented with a two-photon Mai-Tai®, tunable Ti:Sapphire femtosecond pulse laser (710-920 nm, Spectra-Physics). Fluorescence of Ir-based molecular probes was detected using the following settings: two-photon excitation wavelength 830 nm, beam splitter MBS 690+, emission interval 520-650 nm. The H9c2 cells were exposed to two-photon illumination between 810-840 nm. A continuum of lambda stack images was captured across the emission spectrum 416-728 nm. The images were acquired using a Plan-APOCHROMAT 63X/NA1.4 oil immersion objective. The final preparation of the images was conducted with Adobe Photoshop CC (Adobe Systems Inc., USA).

Structure (SMILES): C[n+]1nc2[n](n1)[Ir]13([c]4cc(F)cc(F)c4-c4cccc[n+]41)([c]1cc(F)cc(F)c1-c1cccc[n+]13)[n+]1cc(C#N)ccc1-2 [[Ir(F2ppy)2(MeTzPyCN)]^+]
- logD [1]: 1.86 ± 0.02
- Absorption λabs [nm] (10^4ε [M^−1cm^−1]) ([2]; DCM, 10^−5 M): 250 (3.56) nm (10^4ε [M^−1cm^−1]) and 316 (1.28) nm (10^4ε [M^−1cm^−1]) and 356 (0.58) nm (10^4ε [M^−1cm^−1])
- Emission λem ([2]; DCM, 10^−5 M): 600 nm
- τaer, excited state lifetime (relative weight in parentheses) ([2]; DCM, aerated): 287 ns
- Φaer, quantum yield ([2]; DCM, aerated): 0.057
- τdeaer, excited state lifetime (relative weight in parentheses) ([2]; DCM): 551 ns
- Φdeaer, quantum yield ([2]; DCM): 0.188
- knr ([2]; DCM): 1.601 10^6s^−1
- kr ([2]; DCM): 2.142 10^5s^−1
- Absorption λabs [nm] (10^4ε [M^−1cm^−1]) ([2]; H2O with 0.1% DMSO, 10^−5 M): 260 (4.12) nm (10^4ε [M^−1cm^−1]) and 309 (1.55) nm (10^4ε [M^−1cm^−1]) and 353 (0.66) nm (10^4ε [M^−1cm^−1])
- Emission λem ([2]; H2O with 0.1% DMSO, aerated): 636 nm
- Φ, quantum yield ([2]; H2O with 0.1% DMSO, aerated): 0.005
- cellular localisation (co-staining) [3]: staining pattern consistent with mitochondrial localisation
- emission profile from cells [3]: blue-shifted and almost superimposable bands between these cationic complexes and their neutral analogues

Structure (SMILES): C[n+]1nc2[n](n1)[Ir]13([c]4ccccc4-c4cccc[n+]41)([c]1ccccc1-c1cccc[n+]13)[n+]1cc(-c3ccc(C#N)cc3)ccc1-2 [[Ir(ppy)2(MeTzPyPhCN)]^+]
- logD [1]: 1.87 ± 0.08
- Absorption λabs [nm] (10^4ε [M^−1cm^−1]) ([2]; DCM, 10^−5 M): 267 (3.39) nm (10^4ε [M^−1cm^−1]) and 290 (3.14) nm (10^4ε [M^−1cm^−1]) and 378 (0.40) nm (10^4ε [M^−1cm^−1])
- Emission λem ([2]; DCM, 10^−5 M): 600 nm
- τaer, excited state lifetime (relative weight in parentheses) ([2]; DCM, aerated): 184 ns
- Φaer, quantum yield ([2]; DCM, aerated): 0.057
- τdeaer, excited state lifetime (relative weight in parentheses) ([2]; DCM): 434 ns
- Φdeaer, quantum yield ([2]; DCM): 0.093
- knr ([2]; DCM): 2.090 10^6s^−1
- kr ([2]; DCM): 2.143 10^5s^−1
- Emission λem ([2]; H2O with 0.1% DMSO, aerated): 605 nm
- Φ, quantum yield ([2]; H2O with 0.1% DMSO, aerated): 0.005
- red-shift of emission on passing from a PBS to a lysosomal fluid solution ([2]; PBS vs lysosomal fluid solution): 22 nm
- red-shift of emission from ethyl laurate to dichloromethane ([2]; ethyl laurate vs dichloromethane): almost no shift is observed
- cellular localisation (co-staining) [3]: staining pattern consistent with mitochondrial localisation
- emission profile from cells [3]: blue-shifted and almost superimposable bands between these cationic complexes and their neutral analogues

Structure (SMILES): C[n+]1nc2[n](n1)[Ir]13([c]4ccccc4-c4cccc[n+]41)([c]1ccccc1-c1cccc[n+]13)[n+]1c-2ccc2ccccc21 [[Ir(ppy)2(MeTzQn)]^+]
- logD [1]: 1.68 ± 0.05
- Emission λem ([2]; DCM, 10^−5 M): 635 nm
- τaer, excited state lifetime (relative weight in parentheses) ([2]; DCM, aerated): 218 ns
- Φaer, quantum yield ([2]; DCM, aerated): 0.028
- τdeaer, excited state lifetime (relative weight in parentheses) ([2]; DCM): 546 ns
- Φdeaer, quantum yield ([2]; DCM): 0.043
- knr ([2]; DCM): 1.753 10^6s^−1
- kr ([2]; DCM): 0.788 10^5s^−1
- Absorption λabs [nm] (10^4ε [M^−1cm^−1]) ([2]; H2O with 0.1% DMSO, 10^−5 M): 251 (8.30) nm (10^4ε [M^−1cm^−1]) and 307 (2.52) nm (10^4ε [M^−1cm^−1]) and 364 (1.09) nm (10^4ε [M^−1cm^−1])
- Emission λem ([2]; H2O with 0.1% DMSO, aerated): 630 nm
- Φ, quantum yield ([2]; H2O with 0.1% DMSO, aerated): 0.004
- cellular localisation (co-staining) [3]: preferential localisation in the endoplasmic reticulum and fatty acids and phospholipids
- emission profile from cells [3]: blue-shifted and almost superimposable bands between these cationic complexes and their neutral analogues
